Reference: patent publication US9475783B2, “Antimicrobial agents” (Rutgers, the State University of New Jersey, priority 2012, dated 2016)
Converted amounts (≈) assume the structure as drawn.

What was measured:
[1] = assay type: in vivo; details: formulated in 20% DMA, 40% proplyeneglycol in 8% Cremophor-EL; apparent embolitic effect from drug precipitation
Protocol: The literature vehicle reported for formulation of 5-chloro-2-(2,4-difluoro-3-aminocarbonylphenoxy)methylpyridylthiazole for i.v. administration consists of 20% DMA, 40% polyethylene glycol and 40% saline. […] Mice that were treated 15 minutes later with a second injection consisting of 150 μl of this vehicle died. In addition, concentrations of 5-chloro-2-(2,4-difluoro-3-aminocarbonylphenoxy)methylpyridylthiazole at or above 2.2 mg/ml in this vehicle were not completely dissolved and existed as a suspension (in a 28 g mouse this would be 15.7 mg/kg). A number of other formulations with 5-chloro-2-(2,4-difluoro-3-aminocarbonylphenoxy)methyl benzothiazole were tried, such as 20% DMA, 40% proplyeneglycol in 8% Cremophor-EL. […] Because of the limited solubility and the absence of a suitable vehicle, the literature study where it was reported that a 30 mg/kg dose of 5-chloro-2-(2,4-difluoro-3-aminocarbonylphenoxy)methylpyridylthiazole was delivered to mice in a single injection could not be repeated. […] In some instances the addition of 10-30% propylene glycocol did allow for greater retention of solubility of the test compounds. Example 4 was also found to formulate well at a 2.0 mg/ml concentration in 10 mM malic acid with 20% propylene glycol and with 10 mM p-toluenesulphonate alone. Example 6 did formulate well in 10 mM citrate alone at a concentration of 2.0 mg/ml. […]

[2] = system: MSSA; experiment: Test A antibacterial assay, broth microdilution MIC; assay type: cell-based; details: Staphylococcus aureus, growth read after 24 to 48 hours at OD 600 nm
Protocol: Test A. Antibacterial Assay. Antibacterial activity can be determined as per Clinical and Laboratory Standards Institute (CLSI) guidelines using a broth microdilution assay in which log-phase bacteria are grown at 37° C. in appropriate medium containing two-fold serial dilutions of a compound to yield final concentrations ranging from 256 to 0.06 μg/mL. For determination of minimal inhibitory concentration (MIC) values, bacterial growth is monitored after 24 to 48 hours by measuring optical density at 600 nm.

[3] = system: Bacillus subtilis FG347 bacteria; experiment: Test C FtsZ Z-ring assay (GFP-ZapA fluorescence microscopy); assay type: cell-based; details: compound at 3 μg/mL
Protocol: Test C. FtsZ Z-Ring Assay.
The impact of a compound on FtsZ Z-ring formation can be determined using a strain of Bacillus subtilis (FG347) that expresses a green fluorescent protein (GFP)-ZapA fusion protein upon induction with xylose. ZapA is known to associate with FtsZ Z-rings in B. subtilis and, thus, serves as a marker for Z-ring formation. In this assay, log-phase FG347 bacteria are treated with differing concentrations of compound for time periods ranging from 1 to 6 hours. At each time point, aliquots are taken from each culture and then viewed with a fluorescence microscope.
Examples 4 and 6-8 were evaluated for their impact on the polymerization of Staphylococcus aureus FtsZ. […] In addition, Example 5 and 7 were also examined for their impact on FtsZ Z-ring formation in Bacillus subtilis FG347 bacteria. […] These collective results highlight the compounds of the invention as FtsZ-targeting antibacterial agents.

Structure (SMILES) | outcome of mice treated with the formulation [1] | MIC [2] | bacterial morphology induced [3] | impact on FtsZ Z-ring formation [3]
NC(=O)c1c(F)ccc(OCc2nc3cc(Cl)ccc3s2)c1F [5-chloro-2-(2,4-difluoro-3-aminocarbonylphenoxy)methyl benzothiazole] | died within a few minutes | – | – | –
O=C(NCN1CCOCC1)c1c(F)ccc(OCc2nc3cc(Cl)cnc3s2)c1F [Example 7] | – | 0.5 µg/mL (≈ 1.1 µM) | elongated, filamentous morphology | inhibit FtsZ Z-ring formation
